One series deals with TPA-induced ear edema. As to the kind of experiment: TPA-induced ear edema in female CF-1 mice. The series is classed as in vivo. Particulars: 5 hours; for Weight per punch: mean ± SE. As to the method:
The role of garcinol as a chemopreventive agent has been confirmed in an experiment in which CF-1 mice were treated topically with the inflammation and tumor promoting agent, TPA. [table]

Series [1] concerns azoxymethane (AOM)-induced formation of aberrant colonic crypts (AC). As to the kind of experiment: Azoxymethane (AOM)-induced formation of aberrant colonic crypts in CF-1 mice. The following applies: 10 week oral, 0.05% GAR, 1% HCA. It is filed as in vivo.
Series [2] can be described thus: Body weight and accumulation of fat in abdomen in CF-1 mice, 10 week oral administration. The series is classed as in vivo. Particulars: 0.05% GAR, 1% HCA; for Body weight: AOM.
A short description of series [3]: Oral administration of garcinol, HCA and combination: body weight, food and fluid consumption in SKH-1 mice. It is filed as in vivo. Particulars: 0.05% GAR, 1% HCA, Mean ± SE.
The test system of a further series is ATP citrate lyase enzyme. Particulars: in vitro, purified enzyme; cited from earlier work.
For series [4] the following is noted: rats fed (−) HCA; cited from earlier work.
For series [5] the following is noted: oral, before the feeding period; versus untreated controls; cited from earlier work.
Series [6] has as its target T1, ATP citrate lyase (Homo sapiens, UniProt P53396).
T1 construct: an in vitro study done on hepatic cells; endogenous in cells; host or cells: hepatic cells (species and cell type not specified)
T1 sequence (P53396 1-1101): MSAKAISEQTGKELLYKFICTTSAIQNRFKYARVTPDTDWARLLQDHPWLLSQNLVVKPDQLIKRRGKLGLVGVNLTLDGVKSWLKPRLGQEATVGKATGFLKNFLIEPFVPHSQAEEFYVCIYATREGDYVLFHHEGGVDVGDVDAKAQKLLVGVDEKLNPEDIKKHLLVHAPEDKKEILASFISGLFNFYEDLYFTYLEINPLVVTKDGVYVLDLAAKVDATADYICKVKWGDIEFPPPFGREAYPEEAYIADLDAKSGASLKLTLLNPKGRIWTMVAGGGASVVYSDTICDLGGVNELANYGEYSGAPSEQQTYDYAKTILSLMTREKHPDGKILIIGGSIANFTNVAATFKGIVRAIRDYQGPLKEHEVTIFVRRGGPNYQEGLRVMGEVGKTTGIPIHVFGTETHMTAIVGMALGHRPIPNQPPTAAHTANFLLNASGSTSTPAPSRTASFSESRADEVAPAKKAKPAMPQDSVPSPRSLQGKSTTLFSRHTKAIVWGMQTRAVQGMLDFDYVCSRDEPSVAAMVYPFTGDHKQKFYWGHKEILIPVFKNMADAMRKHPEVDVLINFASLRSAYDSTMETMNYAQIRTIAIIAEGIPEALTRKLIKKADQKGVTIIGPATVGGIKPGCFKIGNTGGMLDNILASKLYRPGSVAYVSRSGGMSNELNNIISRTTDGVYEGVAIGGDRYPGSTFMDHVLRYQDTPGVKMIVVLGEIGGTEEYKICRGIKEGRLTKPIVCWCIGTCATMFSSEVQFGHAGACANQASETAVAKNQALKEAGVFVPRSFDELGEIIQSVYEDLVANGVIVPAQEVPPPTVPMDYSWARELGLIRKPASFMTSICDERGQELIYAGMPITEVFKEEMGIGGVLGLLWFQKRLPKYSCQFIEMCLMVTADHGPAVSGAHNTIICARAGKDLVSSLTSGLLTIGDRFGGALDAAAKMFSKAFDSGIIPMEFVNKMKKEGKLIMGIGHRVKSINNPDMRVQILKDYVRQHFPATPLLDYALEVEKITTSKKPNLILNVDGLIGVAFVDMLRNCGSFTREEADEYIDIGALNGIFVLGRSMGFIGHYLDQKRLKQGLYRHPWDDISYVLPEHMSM
As to the kind of experiment: Inhibition of ATP citrate lyase in hepatic cells in vitro. The following applies: extracellular versus cytosol. The series is classed as cell-based. The source says: In their U.S. Patent, the Inventors addressed an important issue regarding the bioavailability of the HCA compounds. The U.S. Pat. No. 5,783,603 patent described a manufacturing process leading to a unique structure for a potassium salt of HCA, which facilitated its transport across biological membranes, effectively delivering more HCA into the cytosol for the competitive inhibition of ATP citrate lyase. […] Therefore, a 10-fold excess amount of potassium HCA is needed outside of the target cell in order to achieve a concentration of 1/10 that amount in the cytosol. This finding of relatively poor bioavailability of HCA, was confirmed in pre-clinical experiments (14), and points out the need to further improve the bioavailability and efficacy of HCA.

Series [7] deals with T1, ATP citrate lyase. Particulars: cited from earlier work.
The mark [8] stands for this setting: TPA 1 nmol + GAR 0.1 umol topical on ear.
Where [9] appears, read: TPA 1 nmol + GAR 0.5 umol topical on ear.

In the case of `C=C(C)[C@@H](CC=C(C)C)C[C@@]12C[C@@H](CC=C(C)C)C(C)(C)[C@@](CC=C(C)C)(C(=O)C(C(=O)c3ccc(O)c(O)c3)=C1O)C2=O` [GAR, garcinol], the “Percent Inhibition of ear edema” value amounted to 38.5% in the series on TPA-induced ear edema (setting [8]) and 77.5% with TPA-induced ear edema (setting [9]). For the same compound, the Weight per punch came to 12.4 ± 0.81 mg with TPA-induced ear edema (setting [8]) and 9.25 ± 0.66 mg in the series with TPA-induced ear edema (setting [9]). The AC per colon in series [1] was 7.8. The “AC per colon, percentage in parentheses (reduction versus control)” value in series [1] is listed as 31.6%. This compound yielded a parametrial fat in series [2] of 1.21 ± 0.18 gm. Besides, the retroperitoneal fat in series [2] is given as 0.85 ± 0.01 gm. Moreover, the Body weight is 37.3 ± 1.07 gm in series [2], 32.8 ± 0.37 gm in series [3] (5 weeks), 33.9 ± 0.14 gm in series [3] (7 weeks) and 36.4 ± 0.55 gm in series [3] (10 weeks).
In the case of `O=C(O)CC(O)(C(=O)O)C(O)C(=O)O` (stereo not drawn) [HCA, 1,2-dihydroxypropane-1,2,3-tricarboxylic acid], the “inhibition of ATP citrate lyase enzyme” value with ATP citrate lyase enzyme is listed as “potent linear competitive inhibitor”. Also, the “weight loss and cumulative food intake” value in series [4] is recorded as “weight loss with no decrease in cumulative food intake”. Moreover, in [1], the AC per colon turned out to be 7.9 and the “AC per colon, percentage in parentheses (reduction versus control)” value is reported as 30.7%. Further, in series [2], the parametrial fat is given as 1.24 ± 0.06 gm, the retroperitoneal fat turned out to be 0.79 ± 0.04 gm and the Body weight was 37.9 ± 0.66 gm. For the same compound, the Body weight in series [3] (5 weeks) is listed as 32.5 ± 0.42 gm. Further, in [3] (7 weeks), the Body weight turned out to be 34.5 ± 0.59 gm. Moreover, the Body weight in series [3] (10 weeks) is given as 36.8 ± 0.33 gm. In [5], the food intake entry is listed as “consumed less food”; the “hepatic synthesis of fatty acids and cholesterol” value is recorded as “significantly diminished”.
Turning to `O=C([O-])CC(O)(C(=O)[O-])C(O)C(=O)[O-].[K+].[K+].[K+]` (stereo not drawn) [potassium HCA], the “excess needed outside the target cell over cytosol concentration” value at ATP citrate lyase [6] worked out at 10 fold. For the same compound, the “concentration needed in the cytosol to effectively inhibit ATP citrate lyase” value at ATP citrate lyase [7] (cytosol) was 0.5 mM. Further, the “extracellular concentration that could inhibit ATP citrate lyase” value on ATP citrate lyase [7] (hepatic cells, extracellular) was 5 mM.
